Reference: patent US12187752B2, “Solid forms and combination compositions comprising a beta-lactamase inhibitor and uses thereof” (priority 2017, dated 2025)
Like-named read-outs stand apart in the source and are kept apart here. One block for each compound: values may come before it.

Experiments:
[1] = Polymorph and hydrate screen: physical stability of solid forms (AAC, drying); format: physicochemical; details: 40° C. and 75% RH for 2 days
Protocol: The solids obtained from the various crystallization experiments were analyzed by High Throughput XRPD (HT-XRPD). If relevant, the mother liquors were allowed to evaporate completely, and the remaining solids were analyzed by HT-XRPD. Subsequently, all solids were exposed to accelerated aging conditions for 48 hours at 40° C. and 75% RH (AAC).
From the polymorph screen, four novel diffractograms were identified in addition to the two known forms of Compound 1-dihydrochloride, Form 1 and Form 2. Form 1 was the most abundant solid form found in this polymorph screen. The novel diffractograms were designated Forms 3, 4, 5 and 6. All these forms were found with low frequency and were poorly crystalline. […] The HT-XRPD patterns of the new Forms 3, 4, 5 and 6 are shown in FIG. 12, FIG. 13, FIG. 14, and FIG. 15, respectively.
After completion of the equilibration time, the remaining solids were analyzed by HT-XRPD dry under ambient conditions and dried under vacuum. The mother liquors were analyzed by Karl Fisher titration for water content determination. […] The solutions from these experiments were evaporated under vacuum (200 mBar) and the obtained dried solids analyzed by HT-XRPD. All the solids were then exposed to 40° C. and 75% RH for two days.

[2] = Stability of aqueous solutions of combination formulation at pH 5.0; format: physicochemical; details: pH 5.0 at 25° C., 24 hours
[3] = In vitro human serum protein binding; format: in vitro ADME; details: human
Excerpt: (§1) The results from in vitro and in vivo nonclinical PK/PD studies, the human PK data collected in the Phase 1 Study, and human plasma binding data were used to determine human therapeutic doses required for PK/PD target attainment.

human serum protein = experiment: In vitro human serum protein binding; format: in vitro ADME
Excerpt: as §1

[4] = Human pharmacokinetic and PK/PD target attainment estimates; format: in vivo
Excerpt: as §1

[5] = Variable humidity XRPD analysis; format: physicochemical; details: VH-XRPD, sorption; dihydrochloride
Protocol: To confirm the hypothesis of a solid form change between 40% and 0% relative humidity levels a variable humidity XRPD (VH-XRPD) analysis was performed. The sample was subjected to a humidity profile of 45-75-20-15-10-30-35-45% relative humidity levels at 30° C. At each step, two diffractograms were recorded. The first diffractogram was recorded when the target humidity was reached and the second after the sample had equilibrated for 1 hour at each humidity level. […] The most intense peaks of Form 1 (dihydrochloride monohydrate) are in the range between 9.5 and 24.5° 2θ.
The measured RH level and the kind of ongoing RH variation step (sorption or desorption) is found on the right hand side. […] Upon desorption, the material was converted between 20% and 15% relative humidity to Form 2, the anhydrous form. Upon sorption, Form 2 converted back to Form 1 between 30% and 35% relative humidity.

[6] = Aqueous solubility as a function of pH (phosphate buffers, HPLC-UV); format: physicochemical; details: aqueous buffer, thermodynamic from solid; for solubility at 4 h: read-out: Conc. (mg/ml) 4 hours; for solubility thermodynamic at 24 h: read-out: Conc. (mg/ml) 24 hours
Protocol: A known amount of Compound 1 was weighed directly into 5 ml vials and 1 ml of each phosphate buffer was added; the solutions obtained were kept at controlled temperature (25° C.) and magnetically stirred up to 24 hours. Aliquots of obtained suspensions or solutions were centrifuged (14000 rpm 10 minutes) and withdrawn at two predefined time points (4 hours and 24 hours) appropriately diluted and analyzed by HPLC-UV using the analytical method parameters summarized in the Table 9.

DSC analysis of Form 1 = format: physicochemical; details: DSC trace
Protocol: Melting properties were obtained from DSC thermograms, recorded with a heat flux DSC822e instrument (Mettler-Toledo GmbH, Switzerland). The DSC822e was calibrated for temperature and enthalpy with a small piece of indium (melting point at 156.6 C; ΔHf=28.45 J·g−1). Samples were sealed in standard 40 μl aluminum pans, pin-holed and heated in the DSC from 25° C. to 300° C., at a heating rate of 10° C. min-1. Dry N2 gas, at a flow rate of 50 ml min−1 was used to purge the DSC equipment during measurement.
This event corresponds to the onset of dehydration of the monohydrate. This dehydration process is followed by the decomposition of the compound at about 290° C. signaled by a large endothermic event. It is concluded from this experiment that Form 1 is stable to elevated temperature, up to approximately 50° C.

[7] = Dynamic vapor sorption analysis; format: physicochemical; details: 25° C.
Protocol: Differences in hygroscopicity (moisture uptake) of the various forms of a solid material provided a measure of their relative stability at increasing relative humidity. Moisture sorption isotherms of small samples were obtained using a DVS-1 system from Surface Measurement Systems (London, UK); this instrument is suitable for use with as little as a few milligrams of sample, with an accuracy of 0.1 μg. The following humidity profile was applied: The relative humidity was cycled from 45% to 95% (sorption), back to 0% (desorption) and to 45%, at a constant temperature of 25° C. […] Weight equilibration per step was set with a minimum holding time of 1 hour. At the end of the DVS experiments, the recovered solid material was measured by HT-XRPD. Compound 1-dihydrochloride monohydrate was analyzed by dynamic vapor sorption (FIG. 6). The material was subjected to an isothermal desorption/sorption profile starting at 45%-95%-0%-45% relative humidity levels (step 5% at low relative humidity (RH)) at 25° C. The temperature was maintained constant at approximately 25° C. for the duration of the experiment. […] It can be seen that the mass uptake is rather small and that at high humidity level Compound 1-dihydrochloride remained as Form 1. This is confirmed by the mass stability and the VH-XRPD experiment conducted (see FIG. 7). […]

[8] = Physical stability of Compound 1-dihydrochloride at four temperature/RH conditions; format: physicochemical; details: four temperature/RH conditions, 4 weeks
Protocol: A physical stability study of Compound 1-dihydrochloride (mixture of Form 1 and Form 2) was conducted. A solid sample of Compound 1-dihydrochloride was incubated under four relative humidity and temperature conditions: 5° C./ambient RH, 25° C./60% RH, 30° C./65% RH and 40° C./75% RH. At regular intervals, the compound was analyzed by HR-XRPD and TGMS. […] The water content is in line with the monohydrate nature of Compound 1-dihydrochloride Form 1. The TGMS analyses recorded for the 2 weeks and 1-month incubation is also along the 3.8% of water (1 molecule of water per molecule of API).

- Physical stability upon exposure to AAC [1]: Stable
- % present, Compound 1 [2]: 100%
- fraction unbound [3]: 0.63
- free fraction (human serum protein): 63%
- Total AUC0-24 ([4]; Dose Level 250 (q8 hr)): 123 µg·h/mL
- fAUC0-24 ([4]; Dose Level 250 (q8 hr)): 77 µg·h/mL
- Total AUC0-24 ([4]; Dose Level 500 (q8 hr)): 248 µg·h/mL
- fAUC0-24 ([4]; Dose Level 500 (q8 hr)): 156 µg·h/mL
SMILES: NCCN[C@H]1CC[C@H](CC(=O)N[C@H]2Cc3cccc(C(=O)O)c3OB2O)CC1 [Compound 1, (R)-3-(2-(trans-4-(2-aminoethylamino)cyclohexyl)acetamido)-2-hydroxy-3,4-dihydro-2H-benzo[e][1,2]oxaborinine-8-carboxylic acid]

- Relative humidity at which Form 2 converts to Form 1 [5]: 25-35 % RH
SMILES: Cl.Cl.NCCN[C@H]1CC[C@H](CC(=O)N[C@H]2Cc3cccc(C(=O)O)c3OB2O)CC1 [Form 2, (R)-3-(2-(trans-4-(2-aminoethylamino)cyclohexyl)acetamido)-2-hydroxy-3,4-dihydro-2H-benzo[e][1,2]oxaborinine-8-carboxylic acid dihydrochloride]

- solubility at 4 h ([6]; Phosphate Buffer pH 4, pH (4 h) 3.9, 25° C.): > 143 mg/mL
- solubility thermodynamic at 24 h ([6]; Phosphate Buffer pH 4, pH (24 h) 3.9, 25° C.): 133 mg/mL
- solubility at 4 h ([6]; Phosphate Buffer pH 5, pH (4 h) 4.9, 25° C.): > 135 mg/mL
- solubility thermodynamic at 24 h ([6]; Phosphate Buffer pH 5, pH (24 h) 4.9, 25° C.): 107 mg/mL
- solubility at 4 h ([6]; Phosphate Buffer pH 6, pH (4 h) 6.2, 25° C.): > 135 mg/mL
- solubility thermodynamic at 24 h ([6]; Phosphate Buffer pH 6, pH (24 h) 6.2, 25° C.): 102 mg/mL
- solubility at 4 h ([6]; Phosphate Buffer pH 7, pH (4 h) 7.1, 25° C.): > 133 mg/mL
- solubility thermodynamic at 24 h ([6]; Phosphate Buffer pH 7, pH (24 h) 7.0, 25° C.): 87.8 mg/mL
- solubility at 4 h ([6]; Phosphate Buffer pH 8, pH (4 h) 8.1, 25° C.): > 127 mg/mL
- solubility thermodynamic at 24 h ([6]; Phosphate Buffer pH 8, pH (24 h) 8.1, 25° C.): 68.3 mg/mL
- solubility at 4 h ([6]; Phosphate Buffer pH 9, pH (4 h) 8.7, 25° C.): > 109 mg/mL
- solubility thermodynamic at 24 h ([6]; Phosphate Buffer pH 9, pH (24 h) 8.9, 25° C.): 61.4 mg/mL
- Temperature up to which the form is stable (onset of dehydration) (DSC analysis of Form 1): approximately 50 °C
- Mass uptake on exposure to increasing relative humidity ([7]; DVS sorption 45% RH to 95%): rather small
- Mass loss on desorption ([7]; DVS, exposure to 10, 5, and 0% RH, transformation to Form 2): approximately 4%
- Physical stability and hygroscopicity under the tested conditions [8]: physically stable and non-hygroscopic
SMILES: Cl.Cl.NCCN[C@H]1CC[C@H](CC(=O)N[C@H]2Cc3cccc(C(=O)O)c3OB2O)CC1 [Form 1, (R)-3-(2-(trans-4-(2-aminoethylamino)cyclohexyl)acetamido)-2-hydroxy-3,4-dihydro-2H-benzo[e][1,2]oxaborinine-8-carboxylic acid dihydrochloride]
